Data set [1] is described as follows: Melt temperature of VEA/Myvatex Texture Lite blends by differential scanning calorimetry. The format is physicochemical. The conditions noted are these: VEA/Myvatex Texture Lite (wt. %); DSC. From the text: This example illustrates the affect of Myvatex Texture Lite food emulsifier on the melt temperature of VEA. The solid blend was formulated as described in Example 2.
In general terms: In DSC, transitions show as peaks or steps in heat flow.

For data set [2] the following is noted: some species; even in water dispersible forms; cited from earlier work.
Data set [3] can be described thus: Melt temperature of VEA/TPGS blends by differential scanning calorimetry. The format is physicochemical. The procedure: In this example, miscibility of the blends was investigated by determining the melt temperature of various blend ratios. […] The mixture was heated and blended to a homogeneous blend and cooled to room temperature. The melting point of each blend was determined by differential scanning calorimetry.

The conditions of data set [4]: rats; aqueous lecithin dispersed, containing medium chain triglycerides; cited from earlier work.
For data set [5] the following is noted: 3% aqueous solution of Tween-80; cited from earlier work.
The conditions of data set [6]: human, in vivo, po; cited from earlier work.
The conditions of data set [7]: horses; 0, 200, 600, 1800 and 5400 mg daily; cited from earlier work.
For data set [8] the following is noted: zoo animals; remaining excreted unchanged; cited from earlier work.
For data set [9] the following is noted: same patients; tocopherol in vegetable oil; cited from earlier work.
For data set [10] the following is noted: solubilized in medium-chain triglycerides; cited from earlier work.

Where two headings read alike, the source gives them in different places.

In the case of `CC(=O)Oc1c(C)c(C)c2c(c1C)CCC(C)(CCC[C@H](C)CCC[C@H](C)CCCC(C)C)O2` (mixture of isomers) [VEA, d- or dl-alpha-tocopheryl acetate], the “Melt Temperature” value in data set [1] is 2.9 °C; in [3] (VEA/TPGS (wt. %), DSC), 2.9 °C. The bioavailability result in [2] is reported as “not bioavailable”. Further, the “TPGS required to solidify VEA” value in [3] (at room temperature) is 25%. The absorption of tocopherol result in data set [4] is “enhanced absorption”. Further, the “absorption rate relative to vegetable oil solution of VEA” value in data set [5] is recorded as “twice the rate”.
For Vitamin A, in data set [6], the absorption result was “enhanced absorption”.
In the case of `CC(=O)Oc1c(C)c(C)c2c(c1C)CCC(C)(CCCC(C)CCCC(C)CCCC(C)C)O2` (racemic) [dl-alpha-tocopheryl acetate], the “serum tocopherol levels with increasing dosage” value in [7] was “increased almost linearly”. Besides, in [8], the administered tocopherol absorbed entry is reported as “one-half”.
With `Cc1c(C)c2c(c(C)c1O)CCC(C)(CCCC(C)CCCC(C)CCCC(C)C)O2` (stereo not drawn) [tocopherol, alpha-tocopherol], the bioavailability result in data set [2] was “not bioavailable”. For the same molecule, the “increase of tocopherol in the blood” value in [9] is on record as “no significant increase”. In data set [10], the absorption of tocopherol entry was “enhanced absorption”.
Turning to Vitamin E, the absorption entry in [6] is listed as “enhanced absorption”.
